Where two headings read alike, the source gives them in different places.
How the values were obtained:
Test in all cases: biochemical
Design in all cases: DiscoveRx KINOMEscan active site-directed competition binding; percent of control kinase bound to immobilised ligand
[1] = target: T1, ABL1(F317L)-nonphosphorylated (Homo sapiens, UniProt P00519, F317L)
T1 construct: nonphosphorylated

ACVR1 = target: T2, ACVR1 (Homo sapiens, UniProt Q04771)
T2 sequence (Q04771 1-509): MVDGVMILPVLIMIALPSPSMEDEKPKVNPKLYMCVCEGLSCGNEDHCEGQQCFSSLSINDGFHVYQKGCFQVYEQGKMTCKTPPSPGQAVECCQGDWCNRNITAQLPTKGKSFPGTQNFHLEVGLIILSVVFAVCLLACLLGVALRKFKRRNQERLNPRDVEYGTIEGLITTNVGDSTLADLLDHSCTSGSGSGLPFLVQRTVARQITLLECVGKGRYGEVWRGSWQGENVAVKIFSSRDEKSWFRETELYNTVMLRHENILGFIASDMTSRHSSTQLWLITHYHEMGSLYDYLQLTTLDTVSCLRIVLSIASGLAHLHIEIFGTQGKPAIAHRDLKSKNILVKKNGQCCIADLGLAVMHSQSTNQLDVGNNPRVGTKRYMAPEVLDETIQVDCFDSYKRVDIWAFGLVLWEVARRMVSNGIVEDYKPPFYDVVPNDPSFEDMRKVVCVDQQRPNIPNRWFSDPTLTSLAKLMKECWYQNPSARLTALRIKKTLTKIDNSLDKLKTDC

DDR2 = target: T3, DDR2 (Homo sapiens, UniProt Q16832)
T3 sequence (Q16832 1-855): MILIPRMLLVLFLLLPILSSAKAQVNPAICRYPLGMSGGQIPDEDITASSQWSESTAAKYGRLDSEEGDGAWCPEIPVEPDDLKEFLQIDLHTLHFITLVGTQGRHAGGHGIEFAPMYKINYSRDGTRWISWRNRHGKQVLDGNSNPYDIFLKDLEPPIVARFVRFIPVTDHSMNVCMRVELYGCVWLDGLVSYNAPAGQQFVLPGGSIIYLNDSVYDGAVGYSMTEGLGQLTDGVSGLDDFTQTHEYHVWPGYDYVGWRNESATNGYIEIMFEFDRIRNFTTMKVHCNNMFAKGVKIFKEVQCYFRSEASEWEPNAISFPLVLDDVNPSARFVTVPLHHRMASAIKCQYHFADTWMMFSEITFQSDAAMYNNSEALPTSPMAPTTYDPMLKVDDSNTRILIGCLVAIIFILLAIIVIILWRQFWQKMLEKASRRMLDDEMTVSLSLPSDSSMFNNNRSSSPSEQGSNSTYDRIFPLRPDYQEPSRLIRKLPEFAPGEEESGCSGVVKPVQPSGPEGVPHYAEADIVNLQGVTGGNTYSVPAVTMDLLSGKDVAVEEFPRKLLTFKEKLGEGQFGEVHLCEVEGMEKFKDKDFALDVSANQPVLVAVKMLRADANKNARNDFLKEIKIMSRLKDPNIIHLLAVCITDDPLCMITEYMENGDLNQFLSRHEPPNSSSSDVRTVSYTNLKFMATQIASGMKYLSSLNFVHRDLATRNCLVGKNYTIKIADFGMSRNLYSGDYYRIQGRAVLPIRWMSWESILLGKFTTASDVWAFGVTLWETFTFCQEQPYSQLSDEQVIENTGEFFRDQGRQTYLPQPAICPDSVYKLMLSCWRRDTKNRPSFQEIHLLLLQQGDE

FGFR1 = FGFR1 (Homo sapiens, UniProt P11362)
FGFR1, sequence (P11362 whole entry): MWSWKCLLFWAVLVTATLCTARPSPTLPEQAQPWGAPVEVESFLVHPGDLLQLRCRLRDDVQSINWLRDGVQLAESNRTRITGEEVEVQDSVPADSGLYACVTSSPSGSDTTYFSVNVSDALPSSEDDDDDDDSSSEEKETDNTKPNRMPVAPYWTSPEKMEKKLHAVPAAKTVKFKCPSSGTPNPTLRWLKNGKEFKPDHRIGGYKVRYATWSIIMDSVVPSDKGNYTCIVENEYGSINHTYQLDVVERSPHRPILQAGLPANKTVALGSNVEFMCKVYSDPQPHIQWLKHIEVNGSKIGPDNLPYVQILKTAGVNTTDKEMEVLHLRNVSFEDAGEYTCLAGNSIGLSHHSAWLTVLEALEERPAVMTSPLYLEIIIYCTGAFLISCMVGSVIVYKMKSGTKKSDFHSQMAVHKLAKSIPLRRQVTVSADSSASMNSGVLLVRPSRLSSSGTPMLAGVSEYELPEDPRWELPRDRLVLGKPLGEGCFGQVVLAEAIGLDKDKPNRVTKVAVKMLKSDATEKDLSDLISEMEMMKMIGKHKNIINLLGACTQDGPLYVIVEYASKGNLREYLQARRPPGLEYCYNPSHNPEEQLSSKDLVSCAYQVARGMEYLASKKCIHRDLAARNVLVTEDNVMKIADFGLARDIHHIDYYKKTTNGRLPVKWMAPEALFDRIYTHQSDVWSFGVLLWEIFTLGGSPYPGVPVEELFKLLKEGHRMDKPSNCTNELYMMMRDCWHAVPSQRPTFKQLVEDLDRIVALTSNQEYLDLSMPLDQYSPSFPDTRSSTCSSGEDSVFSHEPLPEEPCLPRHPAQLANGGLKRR

MAP3K1 = MAP3K1 (Homo sapiens, UniProt Q13233)
MAP3K1, sequence (Q13233 whole entry): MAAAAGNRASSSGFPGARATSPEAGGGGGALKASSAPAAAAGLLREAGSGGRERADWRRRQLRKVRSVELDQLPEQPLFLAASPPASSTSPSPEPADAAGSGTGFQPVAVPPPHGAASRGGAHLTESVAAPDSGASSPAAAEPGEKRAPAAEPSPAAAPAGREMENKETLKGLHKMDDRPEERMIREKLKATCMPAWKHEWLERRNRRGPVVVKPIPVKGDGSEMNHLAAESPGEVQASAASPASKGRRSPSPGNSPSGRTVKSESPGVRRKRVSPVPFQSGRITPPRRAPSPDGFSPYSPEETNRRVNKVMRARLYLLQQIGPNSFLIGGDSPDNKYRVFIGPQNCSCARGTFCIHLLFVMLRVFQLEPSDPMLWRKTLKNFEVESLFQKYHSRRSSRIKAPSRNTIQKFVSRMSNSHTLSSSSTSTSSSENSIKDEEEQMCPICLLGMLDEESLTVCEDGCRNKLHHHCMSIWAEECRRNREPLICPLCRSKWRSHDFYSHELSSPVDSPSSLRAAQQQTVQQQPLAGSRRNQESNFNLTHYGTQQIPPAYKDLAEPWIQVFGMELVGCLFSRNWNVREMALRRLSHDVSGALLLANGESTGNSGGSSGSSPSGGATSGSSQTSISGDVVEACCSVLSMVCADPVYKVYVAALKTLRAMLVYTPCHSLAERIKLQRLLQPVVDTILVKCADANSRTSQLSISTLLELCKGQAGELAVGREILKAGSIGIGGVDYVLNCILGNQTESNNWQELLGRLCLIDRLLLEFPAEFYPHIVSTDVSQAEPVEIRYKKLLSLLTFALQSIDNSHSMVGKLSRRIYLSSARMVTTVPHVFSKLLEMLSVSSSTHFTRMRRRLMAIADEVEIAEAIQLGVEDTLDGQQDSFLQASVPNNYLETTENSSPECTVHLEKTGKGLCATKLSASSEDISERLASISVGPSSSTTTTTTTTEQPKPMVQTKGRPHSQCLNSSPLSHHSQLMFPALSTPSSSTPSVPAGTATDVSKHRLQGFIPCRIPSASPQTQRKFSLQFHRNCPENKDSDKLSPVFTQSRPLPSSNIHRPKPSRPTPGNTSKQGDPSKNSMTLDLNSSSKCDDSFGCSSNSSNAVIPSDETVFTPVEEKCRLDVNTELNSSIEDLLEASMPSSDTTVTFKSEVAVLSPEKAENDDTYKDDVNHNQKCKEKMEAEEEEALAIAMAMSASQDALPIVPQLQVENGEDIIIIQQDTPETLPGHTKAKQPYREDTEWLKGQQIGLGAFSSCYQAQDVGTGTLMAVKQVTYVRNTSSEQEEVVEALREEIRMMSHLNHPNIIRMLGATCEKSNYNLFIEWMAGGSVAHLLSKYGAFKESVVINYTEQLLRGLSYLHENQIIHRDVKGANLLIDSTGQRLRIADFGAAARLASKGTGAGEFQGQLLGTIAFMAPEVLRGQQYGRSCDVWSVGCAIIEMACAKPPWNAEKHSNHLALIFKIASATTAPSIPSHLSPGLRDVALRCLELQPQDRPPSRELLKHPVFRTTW

MAPKAPK2 = MAPKAPK2 (Homo sapiens, UniProt P49137)
MAPKAPK2, sequence (P49137 whole entry): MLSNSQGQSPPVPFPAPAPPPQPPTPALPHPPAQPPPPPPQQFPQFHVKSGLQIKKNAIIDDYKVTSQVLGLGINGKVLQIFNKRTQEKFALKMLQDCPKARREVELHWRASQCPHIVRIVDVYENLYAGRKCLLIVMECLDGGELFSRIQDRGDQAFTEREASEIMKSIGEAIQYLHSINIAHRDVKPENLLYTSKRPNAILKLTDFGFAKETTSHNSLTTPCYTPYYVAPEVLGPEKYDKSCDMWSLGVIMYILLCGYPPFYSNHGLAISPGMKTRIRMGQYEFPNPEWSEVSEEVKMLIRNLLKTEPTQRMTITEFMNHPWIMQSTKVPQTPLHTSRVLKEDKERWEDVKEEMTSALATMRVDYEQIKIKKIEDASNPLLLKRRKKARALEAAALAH

MST3 = target: T4, MST3 (Homo sapiens, UniProt Q9Y6E0)
T4 construct: gene STK24
T4 sequence (Q9Y6E0 whole entry): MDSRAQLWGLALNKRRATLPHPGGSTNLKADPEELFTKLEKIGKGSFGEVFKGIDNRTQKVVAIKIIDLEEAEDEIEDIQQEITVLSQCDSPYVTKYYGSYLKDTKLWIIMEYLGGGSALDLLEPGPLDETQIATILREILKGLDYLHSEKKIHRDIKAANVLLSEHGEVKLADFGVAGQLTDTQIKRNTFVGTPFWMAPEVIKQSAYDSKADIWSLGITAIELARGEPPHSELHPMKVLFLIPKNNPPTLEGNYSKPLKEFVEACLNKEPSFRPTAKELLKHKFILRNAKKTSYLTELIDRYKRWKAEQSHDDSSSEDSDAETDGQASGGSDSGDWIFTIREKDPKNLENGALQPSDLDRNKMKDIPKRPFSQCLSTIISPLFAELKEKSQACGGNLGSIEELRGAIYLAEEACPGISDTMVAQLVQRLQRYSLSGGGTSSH

SGK2 = target: T5, SGK2 (Homo sapiens, UniProt Q9HBY8)
T5 sequence (Q9HBY8 1-367): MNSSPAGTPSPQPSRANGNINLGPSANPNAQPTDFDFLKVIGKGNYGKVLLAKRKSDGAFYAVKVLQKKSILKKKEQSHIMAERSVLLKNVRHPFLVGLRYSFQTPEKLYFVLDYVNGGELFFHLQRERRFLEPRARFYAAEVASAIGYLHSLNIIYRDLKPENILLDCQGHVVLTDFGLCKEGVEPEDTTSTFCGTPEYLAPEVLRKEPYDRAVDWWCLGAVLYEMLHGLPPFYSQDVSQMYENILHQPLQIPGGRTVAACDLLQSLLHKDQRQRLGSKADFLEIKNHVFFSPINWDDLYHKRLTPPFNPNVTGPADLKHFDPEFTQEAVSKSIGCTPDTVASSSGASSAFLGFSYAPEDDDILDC

TSSK1B = target: T6, TSSK1B (Homo sapiens, UniProt Q9BXA7)
T6 sequence (Q9BXA7 1-367): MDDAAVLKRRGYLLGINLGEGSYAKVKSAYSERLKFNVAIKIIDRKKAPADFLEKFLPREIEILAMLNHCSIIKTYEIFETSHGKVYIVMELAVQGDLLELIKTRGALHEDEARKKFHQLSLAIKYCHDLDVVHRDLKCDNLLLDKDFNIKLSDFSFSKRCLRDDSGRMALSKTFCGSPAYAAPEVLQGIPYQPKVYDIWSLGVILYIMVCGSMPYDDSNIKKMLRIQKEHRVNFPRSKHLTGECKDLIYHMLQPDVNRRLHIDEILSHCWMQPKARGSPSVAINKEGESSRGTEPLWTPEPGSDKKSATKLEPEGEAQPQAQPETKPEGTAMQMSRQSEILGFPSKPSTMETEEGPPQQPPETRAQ

[2] = read-out: Talazoparib (BMN 673) / %Ctrl @ 10000nM
[3] = read-out: Olaparib / %Ctrl @ 10000nM
[4] = read-out: Niraparib (MK-4827) / %Ctrl @ 10000nM
[5] = read-out: Rucaparib / %Ctrl @ 10000nM, binding competition, % of control

T1 sequence (P00519 whole entry F317L): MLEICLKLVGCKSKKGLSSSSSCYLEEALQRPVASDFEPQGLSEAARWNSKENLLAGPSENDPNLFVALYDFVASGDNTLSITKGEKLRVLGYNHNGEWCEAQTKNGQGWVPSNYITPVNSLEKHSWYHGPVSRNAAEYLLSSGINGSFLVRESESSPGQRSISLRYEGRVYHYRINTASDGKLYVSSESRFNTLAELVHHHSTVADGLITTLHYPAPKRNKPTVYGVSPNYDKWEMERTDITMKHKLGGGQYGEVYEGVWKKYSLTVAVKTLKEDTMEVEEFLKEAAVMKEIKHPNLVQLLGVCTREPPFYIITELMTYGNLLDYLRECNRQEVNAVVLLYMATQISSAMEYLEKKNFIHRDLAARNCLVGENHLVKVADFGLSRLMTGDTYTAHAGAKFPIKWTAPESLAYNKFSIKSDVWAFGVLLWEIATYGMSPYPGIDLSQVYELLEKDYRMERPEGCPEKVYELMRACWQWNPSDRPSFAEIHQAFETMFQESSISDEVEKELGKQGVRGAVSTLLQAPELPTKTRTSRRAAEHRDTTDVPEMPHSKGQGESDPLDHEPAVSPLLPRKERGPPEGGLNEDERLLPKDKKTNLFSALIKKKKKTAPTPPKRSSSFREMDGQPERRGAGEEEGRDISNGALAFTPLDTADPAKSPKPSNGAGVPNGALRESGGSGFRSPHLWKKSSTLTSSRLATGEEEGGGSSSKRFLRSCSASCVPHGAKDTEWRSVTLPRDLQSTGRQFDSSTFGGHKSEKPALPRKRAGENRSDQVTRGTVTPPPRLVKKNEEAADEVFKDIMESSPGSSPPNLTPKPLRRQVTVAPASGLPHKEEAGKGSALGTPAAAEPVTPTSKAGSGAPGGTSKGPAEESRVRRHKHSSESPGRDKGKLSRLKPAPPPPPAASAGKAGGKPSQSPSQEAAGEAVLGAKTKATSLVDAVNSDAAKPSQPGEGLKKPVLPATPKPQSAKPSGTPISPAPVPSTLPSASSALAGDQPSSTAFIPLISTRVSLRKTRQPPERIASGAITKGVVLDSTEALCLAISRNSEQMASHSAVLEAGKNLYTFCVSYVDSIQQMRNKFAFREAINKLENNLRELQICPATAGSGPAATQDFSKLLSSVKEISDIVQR

Structure (SMILES): Cn1ncnc1[C@H]1c2n[nH]c(=O)c3cc(F)cc(c23)N[C@@H]1c1ccc(F)cc1 [Talazoparib]
- percent of control binding at 10 µM [1, 2]: 58%
- percent of control binding at 10 µM (ACVR1; [2]): 95%
- percent of control binding at 10 µM (DDR2; [2]): 100%
- percent of control binding at 10 µM (FGFR1; [2]): 94%
- percent of control binding at 10 µM (MAP3K1; [2]): 97%
- percent of control binding at 10 µM (MAPKAPK2; [2]): 100%
- percent of control binding at 10 µM (MST3; [2]): 99%
- percent of control binding at 10 µM (SGK2; [2]): 89%
- percent of control binding at 10 µM (TSSK1B; [2]): 94%

Structure (SMILES): O=C(c1cc(Cc2n[nH]c(=O)c3ccccc23)ccc1F)N1CCN(C(=O)C2CC2)CC1 [Olaparib]
- percent of control binding at 10 µM [1, 3]: 81%
- percent of control binding at 10 µM (ACVR1; [3]): 96%
- percent of control binding at 10 µM (DDR2; [3]): 92%
- percent of control binding at 10 µM (FGFR1; [3]): 100%
- percent of control binding at 10 µM (MAP3K1; [3]): 91%
- percent of control binding at 10 µM (MAPKAPK2; [3]): 84%
- percent of control binding at 10 µM (MST3; [3]): 99%
- percent of control binding at 10 µM (SGK2; [3]): 99%
- percent of control binding at 10 µM (TSSK1B; [3]): 100%

Structure (SMILES): NC(=O)c1cccc2cn(-c3ccc([C@@H]4CCCNC4)cc3)nc12 [Niraparib]
- percent of control binding at 10 µM [1, 4]: 96%
- percent of control binding at 10 µM (ACVR1; [4]): 83%
- percent of control binding at 10 µM (DDR2; [4]): 90%
- percent of control binding at 10 µM (FGFR1; [4]): 88%
- percent of control binding at 10 µM (MAP3K1; [4]): 92%
- percent of control binding at 10 µM (MAPKAPK2; [4]): 80%
- percent of control binding at 10 µM (MST3; [4]): 74%
- percent of control binding at 10 µM (SGK2; [4]): 96%
- percent of control binding at 10 µM (TSSK1B; [4]): 65%

Structure (SMILES): CNCc1ccc(-c2[nH]c3cc(F)cc4c3c2CCNC4=O)cc1 [Rucaparib]
- percent of control binding at 10 µM [1, 5]: 69%
- percent of control binding at 10 µM (ACVR1; [5]): 92%
- percent of control binding at 10 µM (DDR2; [5]): 89%
- percent of control binding at 10 µM (FGFR1; [5]): 91%
- percent of control binding at 10 µM (MAP3K1; [5]): 98%
- percent of control binding at 10 µM (MAPKAPK2; [5]): 100%
- percent of control binding at 10 µM (MST3; [5]): 89%
- percent of control binding at 10 µM (SGK2; [5]): 78%
- percent of control binding at 10 µM (TSSK1B; [5]): 88%
